Laboratory results taken from patent US7084136B2, “Drug composition antagonistic to both PGD2/TXA2 receptors” (Shionogi & Co., Ltd., priority 2000, dated 2006).

What was measured:
[1] = target: T1, PGD2 receptor (Homo sapiens, UniProt Q13258); experiment: Binding activity to PGD2 receptor ([3H]PGD2, human platelet membrane fraction); conditions: human platelet membrane fraction; read-out: Binding activity to PGD2 receptor in human platelet membrane fraction IC50
T1 construct: A suspension adjusted to contain the platelets at a final concentration of 5×10^8/ml was warmed at 37° C; endogenous in cells; host or cells: washed human platelets from a healthy volunteer
T1 sequence (Q13258 1-359): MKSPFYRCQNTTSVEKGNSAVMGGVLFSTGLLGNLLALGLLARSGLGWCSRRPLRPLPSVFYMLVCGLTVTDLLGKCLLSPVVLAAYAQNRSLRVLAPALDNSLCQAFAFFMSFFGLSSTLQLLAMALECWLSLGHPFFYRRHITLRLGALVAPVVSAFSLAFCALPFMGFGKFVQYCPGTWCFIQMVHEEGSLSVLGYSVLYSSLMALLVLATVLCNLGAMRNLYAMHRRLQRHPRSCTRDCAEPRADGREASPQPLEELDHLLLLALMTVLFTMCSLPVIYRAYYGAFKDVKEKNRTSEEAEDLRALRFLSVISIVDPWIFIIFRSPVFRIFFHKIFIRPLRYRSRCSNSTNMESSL
Method: Experiment 1 Binding Activity to PGD2 Receptor
(§1) (1) Preparation of Human Platelet Membrane Fraction
Blood was collected using a plastic syringe containing 3.8% sodium citrate from the vein of healthy volunteers (adult male and female), then put into a plastic test tube and mixed by slow-reversion. The sample was then centrifuged at 1800 rpm, for 10 min at room temperature, and the supernatant containing PRP (platelet-rich plasma) was collected. The PRP was re-centrifuged at 2300 rpm, for 22 min at room temperature to obtain platelets. The platelets were homogenized using a homogenizer (Ultra-Turrax) followed by centrifugation 3 times at 20,000 rpm, 10 min at 4° C. to obtain a platelet membrane fraction. After protein determination, the membrane fraction was adjusted to 2 mg/ml and preserved in a refrigerator at −80° C. until using for the binding test.
(2) Binding to PGD2 Receptor
To a binding-reaction solution (50 mM Tris/HCl, pH 7.4, 5 mM MgCl2) (0.2 ml) were added the human platelet membrane fraction (0.1 mg) and 5 nM [^3H]PGD2 (115 Ci/mmol), and the mixture was reacted at 4° C. for 90 min. After the reaction, the mixture was filtered through a glass fiber filter paper and washed several times with cooled physiological saline, then the radioactivity retained on the filter paper was measured. The specific-binding ratio was calculated by subtracting the non-specific binding ratio which is the radioactivity similarly measured in the presence of 10 μM PGD2 from the total binding. The inhibitory activity of each compound was expressed as the concentration required for 50% inhibition (IC50), which was determined by depicting a substitution curve by plotting the binding ratio (%) in the presence of each compound, where the binding ratio in the absence of a test compound is 100%.

[2] = target: T2, TXA2 receptor (Homo sapiens, UniProt P21731); experiment: Binding activity to TXA2 receptor ([3H](+)-S-145 sodium salt, human platelet membrane fraction); conditions: human platelet membrane fraction; 2 nM [3H](+)-S-145 sodium salt; read-out: Binding activity to TXA2 receptor in human platelet membrane fraction IC50
T2 construct: The human platelet membrane fraction was prepared in accordance with Experiment 1 (1); from tissue; host or cells: human platelet membrane fraction from blood of healthy volunteers
T2 sequence (P21731 1-343): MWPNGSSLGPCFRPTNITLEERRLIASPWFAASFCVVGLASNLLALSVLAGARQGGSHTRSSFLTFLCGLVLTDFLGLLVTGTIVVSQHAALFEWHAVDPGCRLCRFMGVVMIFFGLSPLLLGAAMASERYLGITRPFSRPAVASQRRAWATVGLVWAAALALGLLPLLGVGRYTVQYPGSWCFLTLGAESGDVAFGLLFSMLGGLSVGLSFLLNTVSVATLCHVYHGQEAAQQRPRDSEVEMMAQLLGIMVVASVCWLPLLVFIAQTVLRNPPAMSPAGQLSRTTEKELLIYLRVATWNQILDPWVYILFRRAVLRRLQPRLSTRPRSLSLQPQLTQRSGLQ
Method: Experiment 2 Binding Activity to TXA2 Receptor
as §1
The human platelet membrane fraction was prepared in accordance with Experiment 1 (1).
(2) Binding to TXA2 Receptor
To a binding-reaction solution (50 mM Tris/HCl, pH 7.4, 10 mM MgCl2) (0.2 ml) were added the human platelet membrane fraction (0.05 mg) and 2 nM Sodium [^3H](+)-(5Z)-7-[3-endo-[(phenylsulfonyl)amino]bicyclo[2.2.1]hept-2-exo-yl]heptenoate (Japanese Patent Publication (Kokoku) No.79060/1993, hereinafter referred to as (+)-S-145 sodium salt) (26.4 Ci/mmol), and the mixture was reacted at room temperature for 90 min. After the reaction, the resultant mixture was filtered through a glass fiber filter paper and washed several times with cooled physiological saline, then the radioactivity retained on the filter paper was measured. The specific-binding ratio was calculated by subtracting the non-specific binding ratio (the radio activity similarly determined in the presence of 10 μM (+)-S-145 sodium salt) from the total binding. The inhibitory activity of each compound was expressed as the concentration required for 50% inhibition (IC50), which was determined by depicting a substitution curve by plotting the binding ratio (%) in the presence of each compound, where the binding ratio in the absence of a test compound is 100%.

[3] = target: T1, PGD2 receptor; experiment: Antagonistic activity against PGD2 receptor using human platelet (inhibition of PGD2-induced cAMP increase); format: cell-based; conditions: human platelet; 0.1 μM PGD2; read-out: Inhibitory activity for the increase of cAMP caused by PGD2 in human platelet IC50
Method: Experiment 3 Evaluation of Antagonistic Activity Against PGD2 Receptor
Receptor Using Human Platelet
Peripheral blood was collected from a healthy volunteer using a syringe in which 1/9 volume of a citric acid/dextrose solution was previously added. The sample was subjected to centrifugation at 1200 rpm for 10 min to obtain the supernatant (PRP: platelet rich plasma). The resultant PRP was washed 3 times with a washing buffer and the number of platelets was counted with a micro cell counter. A suspension adjusted to contain the platelets at a final concentration of 5×10^8/ml was warmed at 37° C., then subjected to the pre-treatment with 3-isobutyl-1-methylxanthine (0.5 mM) for 5 min. To the suspension was added a test compound diluted at various concentration, and 10 minutes later, 0.1 μM PGD2 was added to induce the reaction 2 minutes later, hydrochloric acid was added to terminate the reaction. The platelet was destroyed with an ultrasonic homogenizer. After centrifugation, the cAMP in the supernatant was determined by radioimmunoassay. PGD2 receptor antagonism of a drug was evaluated as follows: the inhibition rate regarding cAMP increased by the addition of PGD2 was determined at each concentration, and the concentration of the drug required for 50% inhibition (IC50) was calculated.

[4] = Change of plasma concentration of drug in rat (half life of the disappearance after i.v. administration); format: in vivo; conditions: Jcl-SD male rats, 0.5 to 2 mg/kg intravenously, unchanged compound
Method: Experiment 4 Change of Plasma Concentration of Drug in Rat
Compound (0.5 to 2 mg/kg) was administered intravenously to Jcl-SD male rats.

`O=C(O)CCC/C=C\C[C@H]1[C@@H]2CC[C@@H](C2)[C@@H]1NC(=O)c1ccc(S(=O)(=O)n2cccc2)s1` [I-1] gave an IC50 [1] of 0.0043 µM, an IC50 [2] of 0.003 µM and an IC50 [3] of 0.0013 µM. For the same molecule, the “half life of the disappearance” value [4] was 9.4 min.
In the case of `O=C(O)COCCCC[C@H]1[C@@H]2CC[C@@H](C2)[C@@H]1NC(=O)c1ccc(S(=O)(=O)n2cccc2)s1` [I-7M-1a], the “half life of the disappearance” value [4] is reported as 26.3 min.
Work on `O=C(O)CCC/C=C\C[C@H]1[C@@H]2CC[C@@H](C2)[C@@H]1NC(=O)c1csc2c(Cc3ccccc3)cccc12` [I-143] yielded an IC50 [1] of 0.0027 µM, an IC50 [2] of 0.028 µM and an IC50 [3] of 0.0019 µM. For the same molecule, the “half life of the disappearance” value [4] was 4.7 min.
`O=C(O)CCC/C=C\C[C@H]1[C@@H]2CC[C@@H](C2)[C@@H]1NC(=O)c1csc2c(Cc3ccoc3)cccc12` [I-170] showed an IC50 [1] of 0.00092 µM, an IC50 [2] of 0.027 µM and an IC50 [3] of 0.017 µM.
`O=C(O)CCC/C=C\C[C@H]1[C@@H]2CC[C@@H](C2)[C@@H]1NC(=O)c1ccc(Cc2csc3ccccc23)s1` [I-182] gave an IC50 [1] of 0.061 µM, an IC50 [2] of 0.028 µM and an IC50 [3] of 0.011 µM.
`CC1(C)[C@H]2C[C@H](C/C=C\CCCC(=O)O)[C@@H](NC(=O)c3ccc(S(=O)(=O)n4cccc4)s3)[C@@H]1C2` [II-1] gave an IC50 [1] of 0.002 µM, an IC50 [2] of 0.012 µM and an IC50 [3] of 0.011 µM.
With `CC1(C)[C@H]2C[C@H](C/C=C\CCCC(=O)O)[C@@H](NC(=O)c3ccc(S(=O)(=O)c4ccccc4)s3)[C@@H]1C2` [II-37] the IC50 [1] was 0.026 µM, the IC50 [2] was 0.0043 µM and the IC50 [3] was 0.035 µM.
`CC1(C)[C@H]2C[C@H](C/C=C\CCCC(=O)O)[C@@H](NC(=O)c3ccc(S(=O)(=O)c4cccs4)s3)[C@@H]1C2` [II-47] showed an IC50 [1] of 0.00096 µM, an IC50 [2] of 0.0036 µM and an IC50 [3] of 0.004 µM.
`Cc1cccn1S(=O)(=O)c1ccc(C(=O)N[C@@H]2[C@@H](C/C=C\CCCC(=O)O)C[C@H]3C[C@@H]2C3(C)C)s1` [II-55] gave an IC50 [1] of 0.0015 µM, an IC50 [2] of 0.0044 µM and an IC50 [3] of 0.0039 µM.
`CC1(C)[C@H]2C[C@H](C/C=C\CCCC(=O)O)[C@@H](NC(=O)c3ccc(Sc4cccs4)s3)[C@@H]1C2` [II-59] showed an IC50 [1] of 0.0001 µM, an IC50 [2] of 0.014 µM and an IC50 [3] of 0.024 µM. The “half life of the disappearance” value [4] was 11.0 min.
Work on `Cc1cc(S(=O)(=O)c2ccc(C(=O)N[C@@H]3[C@@H](C/C=C\CCCC(=O)O)C[C@H]4C[C@@H]3C4(C)C)s2)cs1` [II-101] yielded an IC50 [1] of 0.072 µM, an IC50 [2] of 0.004 µM and an IC50 [3] of 0.045 µM.
For `CC1(C)[C@H]2C[C@H](C/C=C\CCCC(=O)O)[C@@H](NC(=O)c3ccc(S(=O)(=O)c4cccc(O)c4)s3)[C@@H]1C2` [II-117], the IC50 [1] was 0.022 µM, the IC50 [2] was 0.0026 µM and the IC50 [3] was 0.024 µM.
Work on `COc1ccccc1Cc1ccc(C(=O)N[C@@H]2[C@@H](C/C=C\CCCC(=O)O)C[C@H]3C[C@@H]2C3(C)C)s1` [II-126] yielded an IC50 [1] of 0.0046 µM, an IC50 [2] of 0.045 µM and an IC50 [3] of 0.004 µM.
In the case of `CC1(C)[C@H]2C[C@H](C/C=C\CCCC(=O)O)[C@@H](NC(=O)c3ccc(Cc4cccc(-c5ccccc5)c4)s3)[C@@H]1C2` [II-138], the IC50 [1] is reported as 0.032 µM, the IC50 [2] is reported as 0.072 µM and the IC50 [3] is reported as 0.025 µM.
